Laboratory results: patent US20240210394A1, “MICROORGANISM CAPTURE FROM ANTIMICROBIAL-CONTAINING SOLUTION” (MOMENTUM BIOSCIENCE LIMITED, priority 2019, published 2024)

Legend:
E. coli [1] = settings: cited from earlier work
Pseudomonas aeruginosa [2] = assay: Blood culture time to positivity (flip time), bead rescue vs no-rescue control; type: cell-based; settings: Meropenem 49 mg/L blood
Experimental: (§1) Day 1: Prepare overnight culture of test organism in blood/broth medium (50:50 blood:broth) and incubate at 37° C. (or 30° C. for C. neoformans) in a shaking incubator.
(§2) (or 30° C. for C. neoformans) for 2 h for outgrowth. • Antibiotic added to whole blood (defibrinated horse blood) at required level • Whole blood as no-antibiotic control • Test dilution(s) of organism added to blood+antibiotic or blood only at 10 μL per mL of blood (sufficient prepared for experiment requirements) • 100 μL plate count sample taken (TO sample) • 2-hour incubation (static) at 37° C. (or 30° C. for C. neoformans) • 100 μL plate count sample taken (T2 sample) • 5 mL of spiked blood+abx or blood only added to blood culture bottle (using vial adapter) and incubation started (adapter removed) • 5 mL of spiked blood+abx or blood only (from same source) treated with Momentum Capture Beads as below: • 1. Capture Beads diluted in the relevant Capture Reagent—50 μL beads:700 μL capture reagent per clean-up • 2. 750 μL of diluted beads added to 50 mL conical centrifuge tube • 3. 5 mL of transfer medium added to tube • 4. 5 mL of spiked blood+abx or blood only added to tube • 5. Incubate on ITL TherMix (32.5° C./30 min/1000 rpm—ramped speed protocol) • 6. Magnetise on V&P magnet for 10 min then remove supernatant • 7. Resuspend beads in 1 mL Detergent-free Wash Buffer (DWB) off magnet and transfer to 2 mL Eppendorf flip-top tube on DynaMag-2 magnet • 8. Magnetise for 3 min then remove supernatant • 9. Resuspend beads in 1 mL Detergent-free Wash Buffer (DWB) off magnet then replace on DynaMag-2 magnet • 10. Magnetise for 3 min then remove supernatant • 11. Resuspend beads in 1 mL DWB, add to new blood culture bottle (using vial adapter) and start incubation (adapter removed)
(§3) Record the “Flip” time of each bottle or bottle result at the end of 5 days incubation. The “Flip” time is when a bottle turns positive as determined by the automated blood culture cabinet, which records time to positivity.
(§4) Day 1: Prepare overnight culture of test organism in blood/broth medium (50:50 blood:broth) and incubate at 37° C. in a shaking incubator.
(§5) Momentum Capture Beads diluted in the relevant Capture Reagent—50 μL beads:700 μL capture reagent per clean-up • 2. 750 μL of diluted beads added to 50 mL conical centrifuge tube • 3. 5 mL of transfer medium added to tube • 4. 5 mL of spiked blood+abx or blood only added to tube • 5. Incubate on ITL TherMix (32.5° C./30 min/1000 rpm—ramped speed protocol) • 6. Magnetise on V&P magnet for 10 min then remove supernatant • 7. Resuspend beads in 1 mL Detergent-free Wash Buffer (DWB) off magnet and transfer to 2 mL Eppendorf flip-top tube on DynaMag-2 magnet • 8. Magnetise for 3 min then remove supernatant • 9. Resuspend beads in 1 mL Detergent-free Wash Buffer (DWB) off magnet then replace on DynaMag-2 magnet • 10. Magnetise for 3 min then remove supernatant • 11. Resuspend beads in 1 mL DWB, add to an unused blood culture bottle (BioMerieux FA+culture bottle) using vial adapter and start incubation (adapter removed)

Klebsiella pneumoniae [3] = assay: as above; type: cell-based; settings: Meropenem 49 mg/L blood; for Flip time: Bead rescue; for Flip time in Days: Control (FA plus bottle)
Experimental: as §1, §2, §3, §4, §5

Klebsiella pneumoniae [4] = settings: K. pneumoniae; cited from earlier work
Pseudomonas aeruginosa [5] = settings: P. aeruginosa; cited from earlier work
E. coli [6] = assay: Blood culture time to positivity (flip time), bead rescue vs no-rescue control; type: cell-based; settings: Meropenem 49 mg/L blood; for Flip time: Bead rescue; for Flip time in Days: Control (FA plus bottle)
Experimental: as §4
Day 2: Prepare ten-fold serial dilution of overnight culture in blood/broth as required and incubate at 37° C. for 2 h for outgrowth.
Add 5 mL of spiked blood+beads (set 1) and 5 mL of spiked blood/Abx+beads (set 3) to blood culture bottles (BioMerieux SA culture bottle) using a vial adapter (West Pharmaceutical Services, Inc. PA, US).
Remove the adaptor and incubate the blood culture bottles in the automated blood culture cabinet (BacT/ALERT BioMerieux) for up to 5 days.
as §3, §1
as §2, with “Incubate on ITL TherMix (32.5° C./30 min/1000 rpm—ramped speed protocol) • 6.” left out
as §5, with “Incubate on ITL TherMix (32.5° C./30 min/1000 rpm—ramped speed protocol) • 6.” left out

C[C@@H](O)[C@H]1C(=O)N2C(C(=O)O)=C(S[C@@H]3CN[C@H](C(=O)N(C)C)C3)[C@H](C)[C@H]12 [Meropenem]
MIC (E. coli [1]): ≤1 µg/mL
Flip time (Pseudomonas aeruginosa [2]; Bead rescue, 1250 cfu/5 mL blood): 0.81 days
Flip time (Pseudomonas aeruginosa [2]; Bead rescue, 200000 cfu/5 mL blood): 0.54 days
Flip time (Pseudomonas aeruginosa [2]; Bead rescue, 2000000 cfu/5 mL blood): 0.46 days
Flip time in Days (Pseudomonas aeruginosa [2]; Control (FA plus bottle), 1250 cfu/5 mL blood): Neg
Flip time (Pseudomonas aeruginosa [2]; Control (FA plus bottle), 200000 cfu/5 mL blood): 0.9 days
Flip time (Pseudomonas aeruginosa [2]; Control (FA plus bottle), 2000000 cfu/5 mL blood): 0.81 days
Flip time (Klebsiella pneumoniae [3]; 125000 cfu/5 mL blood): 0.43 days
Flip time (Klebsiella pneumoniae [3]; 1250000 cfu/5 mL blood): 0.38 days
Flip time in Days (Klebsiella pneumoniae [3]; 125000 cfu/5 mL blood): Neg
Flip time in Days (Klebsiella pneumoniae [3]; 1250000 cfu/5 mL blood): Neg
MIC (Klebsiella pneumoniae [4]): ≤1 µg/mL
MIC (Pseudomonas aeruginosa [5]): ≤1 µg/mL
Flip time (E. coli [6]; 900 cfu/5 mL blood): 0.56 days
Flip time (E. coli [6]; 150000 cfu/5 mL blood): 0.46 days
Flip time (E. coli [6]; 1500000 cfu/5 mL blood): 0.43 days
Flip time in Days (E. coli [6]; 900 cfu/5 mL blood): Neg
Flip time in Days (E. coli [6]; 150000 cfu/5 mL blood): Neg
Flip time in Days (E. coli [6]; 1500000 cfu/5 mL blood): Neg
